Test results as given in patent US20230399411A1, “SPECIFIC ANTIBODY-DRUG-CONJUGATES (ADCS) WITH KSP INHIBITORS AND ANTI-CD123-ANTIBODIES” (Bayer Pharma Aktiengesellschaft, priority 2016, published 2023).

How the values were obtained:
[1] = Caco-2 flux assay for cell permeability; assay type: in vitro ADME; conditions: human; for Papp B→A at 2 h: Caco-2, 2 hours
Description: The cell permeability of a substance can be investigated by means of in vitro testing in a flux assay using Caco-2 cells [M. D. Troutman and D. R. Thakker, Pharm. Res. 20 (8), 1210-1224 (2003)]. For this purpose, the cells were cultured for 15-16 days on 24-well filter plates. For the determination of permeation, the respective test substance was applied in a HEPES buffer to the cells either apically (A) or basally (B) and incubated for 2 hours. After 0 hours and after 2 hours, samples were taken from the cis and trans compartments. The samples were separated by HPLC (Agilent 1200, Böblingen, Germany) using reverse phase columns. The HPLC system was coupled via a Turbo Ion Spray Interface to a Triple Quadropol mass spectrometer API 4000 (AB SCIEX Deutschland GmbH, Darmstadt, Germany). The permeability was evaluated on the basis of a Papp value, which was calculated using the formula published by Schwab et al. [D. Schwab et al., J. Med. Chem. 46, 1716-1725 (2003)]. […] Of critical importance for toxophores which are released intracellularly is the permeability from B to A [Papp (B-A)] and the ratio of Papp (B-A) to Papp (A-B) (efflux ratio): the lower this permeability, the slower the active and passive transport processes of the substance through the monolayer of Caco-2 cells.

NCI-H292 cells = assay: MTT assay, cytotoxicity of metabolites; assay type: cell-based; conditions: Homo sapiens, 96 h incubation
Description: The analysis of the cytotoxic effects of the anti-CD123 ADCs and the corresponding metabolites was carried out with various cell lines:
NCI-H292: human mucoepidermoid lung carcinoma cells, ATCC-CRL-1848, standard medium: RPMI 1640 (Biochrom; #FG1215, stab. glutamine)+10% FCS (Biochrom; #S0415).
The cells were cultivated according to the standard method using the growth media listed under C-1. The test is carried out by detaching the cells with a solution of Accutase in PBS (Biochrom AG #L2143; in case of adherent cell), pelleting, resuspending in culture medium, counting and sowing into a 96-well culture plate with white bottom (Costar #3610) (NCI H292: 2500 cells/well; MOLM-13: 2000 cells/well; THP-1: 8000 cells/well; NB4: 7000 cells/well; KG-1: 5000 cells/well, MV-4-11: 5000 cells/well in a total volume of 100 μl). The cells were then incubated in an incubator at 37° C. and 5% carbon dioxide. After 6 h or 48 h (adherent cells) the medium was replaced. […] After 96 h, the cell proliferation was detected using the MTT assay (ATCC, Manassas, Virginia, USA, catalogue No. 30-1010K). […] The dye formed was detected at 570 nm (Infinite M1000 pro, Tecan). The measured data were used to calculate the IC50 of the growth inhibition using the DRC (dose response curve). […]

Compound | Papp B→A at 2 h [1] [×10⁻⁶ cm/s] | efflux ratio at 2 h ([1]; Caco-2, Papp (B-A) to Papp (A-B)) | IC50 (NCI-H292 cells) [nM]
CC(C)(C)[C@H](c1cc(-c2cc(F)ccc2F)cn1Cc1ccccc1)N(CCCN)C(=O)CSC[C@H](NC(=O)CCOCCOCCOCCOCCNC(=O)CNC(=O)C(CC(=O)O)SC[C@H](N)C(=O)O)C(=O)O.O=C(O)C(F)(F)F.O=C(O)C(F)(F)F (stereo partly drawn) [Example M21, (2R,24S,27R)-27-Amino-2-[({2-[(3-aminopropyl){(1R)-1-[1-benzyl-4-(2,5-difluorophenyl)-1H-pyrrol-2-yl]-2,2-dimethylpropyl}amino]-2-oxoethyl}sulphanyl)methyl]-24-(carboxymethyl)-4,20,23-trioxo-7,10,13,16-tetraoxa-25-thia-3,19,22-triazaoctacosane-1,28-dioic acid/trifluoroacetic acid (1:2)] | 0.05 | 1.5 | 
CC(C)(C)[C@H](c1cc(-c2cc(F)ccc2F)cn1Cc1ccccc1)N(CCCN)C(=O)CSC[C@H](NC(=O)CCOCCOCCOCCOCCNC(=O)CNC(=O)CC(SC[C@H](N)C(=O)O)C(=O)O)C(=O)O.O=C(O)C(F)(F)F.O=C(O)C(F)(F)F (stereo partly drawn) [Example M20, (1R,4R,27R,33R)-1-Amino-32-(3-aminopropyl)-33-[1-benzyl-4-(2,5-difluorophenyl)-1H-pyrrol-2-yl]-34,34-dimethyl-6,9,25,31-tetraoxo-13,16,19,22-tetraoxa-3,29-dithia-7,10,26,32-tetraazapentatriacontane-1,4,27-tricarboxylic acid/trifluoroacetic acid (1:2)] | 0.089 |  | 149
